Experimental data reported in the CheMixHub viscosity set.
± gives the uncertainty stated by the source.

Assay: xn = mol fraction of the nth substance listed

CCCCCCCCCCO + CS(C)=O
313 K, 101 kPa
Details	viscosity [mPa·s]
x2 = 0.0732	5.748 ± 0.15
x2 = 0.2168	4.662 ± 0.12
x2 = 0.3082	4.127 ± 0.11
x2 = 0.3986	3.711 ± 0.097
x2 = 0.5096	3.248 ± 0.085
x2 = 0.5918	2.964 ± 0.077
x2 = 0.6951	2.596 ± 0.067
x2 = 0.8064	2.203 ± 0.057
x2 = 0.9009	1.838 ± 0.048

CC(C)CCC[C@@H](C)[C@H]1CC[C@H]2[C@@H]3CC=C4C[C@@H](O)CC[C@]4(C)[C@H]3CC[C@]12C + ClC(Cl)(Cl)Cl
viscosity [mPa·s], 101.33 kPa
Details	x1 = 0.0058	x1 = 0.00978	x1 = 0.0123	x1 = 0.01552	x1 = 0.01963	x1 = 0.02491	x1 = 0.03174
298 K	0.983 ± 0.012	1.04 ± 0.012	1.077 ± 0.013	1.136 ± 0.013	1.219 ± 0.014	1.328 ± 0.015	1.491 ± 0.017
303 K	0.912 ± 0.011	0.962 ± 0.011	0.996 ± 0.012	1.045 ± 0.012	1.12 ± 0.013	1.212 ± 0.014	1.355 ± 0.016
313 K	0.797 ± 0.01	0.836 ± 0.01	0.858 ± 0.01	0.898 ± 0.011	0.953 ± 0.011	1.024 ± 0.012	1.134 ± 0.013
323 K	0.705 ± 0.009	0.738 ± 0.009	0.753 ± 0.009	0.785 ± 0.01	0.826 ± 0.01	0.881 ± 0.011	0.96 ± 0.011

NC(N)=O + CO
viscosity [mPa·s], 101 kPa
Details	293.15 K	298.15 K	303.15 K	308.15 K	313.15 K	318.15 K	323.15 K
x1 = 0.08238	0.924 ± 0.009	0.849 ± 0.008	0.781 ± 0.008	0.721 ± 0.007	0.668 ± 0.007	0.62 ± 0.006	0.576 ± 0.006
x1 = 0.09642	–	0.9735 ± 0.025	0.8914 ± 0.023	0.8215 ± 0.021	0.7546 ± 0.019	0.6953 ± 0.017	–
x1 = 0.1034	1.031 ± 0.01	0.942 ± 0.009	0.864 ± 0.008	0.794 ± 0.008	0.732 ± 0.007	0.677 ± 0.007	0.627 ± 0.006
x1 = 0.1289	1.164 ± 0.011	1.064 ± 0.01	0.975 ± 0.009	0.896 ± 0.009	0.826 ± 0.008	0.764 ± 0.007	0.707 ± 0.007
x1 = 0.138	–	1.222 ± 0.031	1.111 ± 0.028	1.019 ± 0.026	0.9311 ± 0.024	0.8588 ± 0.022	–

Cc1ccccc1C + c1ccccc1
viscosity [mPa·s]
Details	293.15 K	303.15 K	308.15 K	313.15 K	318.15 K	323.15 K
101 kPa, x2 = 0.1	–	0.657 ± 0.004	0.622 ± 0.004	0.594 ± 0.004	0.572 ± 0.004	–
101 kPa, x2 = 0.2	–	0.665 ± 0.004	0.631 ± 0.004	0.597 ± 0.004	0.573 ± 0.004	–
101 kPa, x2 = 0.4	–	0.69 ± 0.005	0.668 ± 0.005	0.599 ± 0.004	0.574 ± 0.004	–
101 kPa, x2 = 0.6	–	0.652 ± 0.004	0.623 ± 0.004	0.592 ± 0.004	0.55 ± 0.004	–
101 kPa, x2 = 0.802	–	0.645 ± 0.004	0.61 ± 0.004	0.577 ± 0.004	0.552 ± 0.004	–
101 kPa, x2 = 0.902	–	0.67 ± 0.004	0.641 ± 0.004	0.623 ± 0.004	0.587 ± 0.004	–
101.33 kPa, x2 = 0.1	–	0.657 ± 0.07	0.622 ± 0.066	0.594 ± 0.064	0.572 ± 0.062	–
101.33 kPa, x2 = 0.2	–	0.665 ± 0.07	0.631 ± 0.067	0.597 ± 0.064	0.573 ± 0.062	–
101.33 kPa, x2 = 0.2114	0.749 ± 0.0065	0.657 ± 0.0058	–	0.583 ± 0.0053	–	0.519 ± 0.0048
101.33 kPa, x2 = 0.4	–	0.69 ± 0.072	0.668 ± 0.07	0.599 ± 0.064	0.574 ± 0.062	–
101.33 kPa, x2 = 0.4129	0.71 ± 0.0062	0.625 ± 0.0056	–	0.554 ± 0.005	–	0.493 ± 0.0046
101.33 kPa, x2 = 0.5938	0.685 ± 0.0061	0.601 ± 0.0054	–	0.531 ± 0.0049	–	0.474 ± 0.0044
101.33 kPa, x2 = 0.6	–	0.652 ± 0.069	0.623 ± 0.067	0.592 ± 0.064	0.55 ± 0.06	–
101.33 kPa, x2 = 0.7195	0.669 ± 0.0059	0.585 ± 0.0053	–	0.517 ± 0.0048	–	0.461 ± 0.0043
101.33 kPa, x2 = 0.802	–	0.645 ± 0.068	0.61 ± 0.065	0.577 ± 0.063	0.552 ± 0.06	–
101.33 kPa, x2 = 0.8514	0.658 ± 0.0059	0.575 ± 0.0052	–	0.506 ± 0.0047	–	0.45 ± 0.0043
101.33 kPa, x2 = 0.902	–	0.67 ± 0.071	0.641 ± 0.068	0.623 ± 0.067	0.587 ± 0.063	–

c1ccc(Oc2ccccc2)cc1 + CCOc1ccccc1
298.15 K, 101 kPa
Details	viscosity [mPa·s]
x2 = 0.1367	3.264 ± 0.045
x2 = 0.2072	3.003 ± 0.042
x2 = 0.3253	2.63 ± 0.038
x2 = 0.3731	2.455 ± 0.036
x2 = 0.5105	2.096 ± 0.032
x2 = 0.6002	1.862 ± 0.029
x2 = 0.7037	1.632 ± 0.026
x2 = 0.8127	1.451 ± 0.024
x2 = 0.9006	1.309 ± 0.022

Nc1ccc(S(=O)(=O)O)cc1 + O
101 kPa
Details	viscosity [mPa·s]
298.15 K, x1 = 0.0001913	0.8949 ± 0.0056
298.15 K, x1 = 0.0003038	0.8969 ± 0.0056
298.15 K, x1 = 0.0004208	0.899 ± 0.0057
298.15 K, x1 = 0.0005447	0.8999 ± 0.0057
298.15 K, x1 = 0.0006999	0.9031 ± 0.0057
308.15 K, x1 = 0.000111	0.7215 ± 0.0047
308.15 K, x1 = 0.0001913	0.7221 ± 0.0047
308.15 K, x1 = 0.0003038	0.724 ± 0.0047
308.15 K, x1 = 0.0003839	0.7252 ± 0.0048
308.15 K, x1 = 0.0004208	0.7255 ± 0.0048
308.15 K, x1 = 0.0006999	0.7281 ± 0.0048
318.15 K, x1 = 0.0002046	0.5999 ± 0.0042
318.15 K, x1 = 0.0003685	0.601 ± 0.0042
318.15 K, x1 = 0.0005157	0.6033 ± 0.0042
318.15 K, x1 = 0.0006087	0.6041 ± 0.0042
318.15 K, x1 = 0.0006767	0.6049 ± 0.0042
318.15 K, x1 = 0.0007735	0.6055 ± 0.0042
